These results are taken from patent publication US20150018271A1, “HSP60 DERIVED PEPTIDES AND PEPTIDE ANALOGS FOR SUPPRESSION AND TREATMENT OF NON-AUTOIMMUNE DIABETES” (Yeda Research and Development Co. Ltd., priority 2012, published 2015).

Ends that are not written are not given here.

The subject of one data set is NOD mice. The following applies: cited from earlier work.
Data set [1] deals with male C57BL/N mice on high fat (60%) diet. The following applies: any of the DiaPep277 treatments (100-500 μg in intralipid SC or 100 μg in PBS IP), about 16 weeks, FIG. 1.
Excerpt: Mice genetically prone to T2D (dp/dp or ob/ob strains, resistant to leptin), and/or healthy C57BL/6 mice induced to develop T2D by a high fat diet are used in vivo to assess the activity of hsp60 peptides and analogs in protecting against or treatment of T2D. […] In the fat diet model, the diet (for example TD.0811 of Harlan™, or D12492 of Research Diets Inc. containing 21% and 34.9% fat respectively) is initiated after weaning and the mice express T2D by 10 weeks of age.
In a typical trial, groups of T2D mice (10 mice per group) are treated early in the course of the disease (about 7-10 weeks of age). […]
Treatment with DiaPep277 or other hsp60 peptides or analogs, is performed once or several times a week with doses of 100-500 micrograms injected subcutaneously (with adjuvant such as intralipid) or IP, IM or IV (without adjuvant). Glucose tolerance, fasting glucose and fasting insulin levels are measured 1-2 months after onset of treatment.
In one specific in-vivo trial, 70 male C57BL/N mice were weighed, measured for blood glucose levels and divided into seven groups, 10 mice/group as following: […]
Animals of groups 2-7 were fed with 60% fat diet of from age of 5 weeks until termination of the trial. […] After about 16 weeks the trial was terminated and Hemoglobin A1C and C-peptide levels were measured using methods known in the art.

Regarding “p277: specific peptide of human hsp60, one of the immunodominant epitopes in autoimmune diabetes; native cysteines at positions 6 and 11 (VLGGGCALLRCIPALDSLTPANED; p277 peptide; UniProt P10809 437-460, looked up, fragment)”, in the data set on NOD mice (after treatment), the gamma interferon secretion result is on record as “decrease”; the “p277-specific IL-4 and IL-10 secretion” value is recorded as “increase”; the “p277-specific IgG1 antibodies” value is “induced”. In the data set with NOD mice (subcutaneous administration), the “T-cell reactivity to beta cell antigens” value is on record as “down-regulated” and the development of diabetes result is recorded as “prevented the development of diabetes”.
For VLGGGVALLRVIPALDSLTPANED [DiaPep277], the “animal appetite and weight” value in data set [1] is “did not change”.
